# Like-named read-outs stand apart in the source and are kept apart here.
# Tests used:
# [1] = target: T1, human serum albumin (HSA) (Homo sapiens, UniProt P02768); test: Isothermal titration calorimetry (ITC) of binding of catechins and analogs to HSA; design: purchased Sigma-Aldrich Japan (Tokyo, Japan); conditions: for change of binding affinity with addition of 0.2 M NaCl: 0.2 M NaCl versus no NaCl
# Description: The binding of the catechins and its analogs to HSA was examined in a VP-ITC instrument (Microcal Northampton, MA). […] The data were analyzed with the Origin software (ver. 7) by means of a single-binding-site model. The thermodynamic parameters were obtained from three replicate titrations, where the dilution heats of the ligands were subtracted.
# [2] = target: T1, human serum albumin (HSA); test: Differential scanning calorimetry (DSC), thermal stability of HSA–ligand complexes; conditions: for Tm: DSC, HSA 50 μM, ligand 500 μM, 50 mM sodium phosphate pH 6.8, HSA alone 68.6 ± 0.1; for ΔTm at 500 µM: human, pH 6.8
# Description: The thermal stabilities of HSA and the HSA–ligand complexes were determined by differential scanning calorimetry in a VP-DSC autosampler instrument (GE Healthcare). The cell was heated from 303 to 363 K at a rate of 1 K min^−1. The concentrations of HSA and the ligands were 50 and 500 μM, respectively, in a buffer composed of 50 mM sodium phosphate (pH 6.8). The data analysis was carried out with the Origin software (ver. 7) using a two-state model.
# site I of HSA = target: T2, site I of HSA (Homo sapiens, UniProt P02768); test: ITC competition assay with warfarin (site I marker); type: binding; conditions: HSA 50 μM, catechin 500 μM, warfarin 500 μM titrated, pH 6.8, 1% DMSO
# T2 construct: purchased Sigma-Aldrich Japan (Tokyo, Japan)
# T2 sequence (P02768 25-609): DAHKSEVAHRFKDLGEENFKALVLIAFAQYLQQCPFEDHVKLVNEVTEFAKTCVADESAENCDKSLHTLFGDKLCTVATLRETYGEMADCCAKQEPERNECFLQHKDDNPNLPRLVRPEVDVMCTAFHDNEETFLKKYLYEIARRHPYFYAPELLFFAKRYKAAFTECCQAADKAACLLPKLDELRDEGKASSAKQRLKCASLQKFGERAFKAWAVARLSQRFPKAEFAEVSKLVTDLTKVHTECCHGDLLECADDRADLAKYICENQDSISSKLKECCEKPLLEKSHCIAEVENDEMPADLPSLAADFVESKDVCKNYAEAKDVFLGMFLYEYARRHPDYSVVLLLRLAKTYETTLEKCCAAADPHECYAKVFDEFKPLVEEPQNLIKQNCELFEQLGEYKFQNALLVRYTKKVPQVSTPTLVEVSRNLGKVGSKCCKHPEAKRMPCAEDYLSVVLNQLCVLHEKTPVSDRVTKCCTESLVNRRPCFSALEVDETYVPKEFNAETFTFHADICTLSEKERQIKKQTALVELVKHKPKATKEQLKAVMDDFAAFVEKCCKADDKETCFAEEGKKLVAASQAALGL
# Description: To obtain information about the HSA binding site of catechins, we carried out competition assays using ITC. Warfarin was used as a marker for monitoring site I of HSA. […] Warfarin was titrated into the cell containing either HSA or an HSA-EGCg complex at 180-s intervals with constant stirring at 307 rpm. The total amount of heat obtained for each measurement was taken as the total heat quantity (ΔQ), and we verified whether warfarin and the catechins bound to the same site by comparing the ΔQ from the interaction between HSA and warfarin. The binding inhibition rate was defined by the equation belowcalculated as follows: […]
# [3] = Table 1, ITC, 298 K, 50 mM sodium phosphate pH 6.8
# [4] = Table 1, ITC, 298 K, 50 mM sodium phosphate pH 6.8, HSA 50 μM, single-binding-site model
# [5] = Table 2, methylated catechin derivatives, ITC, 298 K
# T1 sequence (P02768 25-609): as above
smiles,measurement,setting,value
"Oc1cc(O)c2c(c1)O[C@H](c1cc(O)c(O)c(O)c1)[C@H](O)C2 [EGC, (−)-epigallocatechin]",change of binding affinity with addition of 0.2 M NaCl,[1]; ITC,increased
same,thermodynamic profile of binding (enthalpy-driven or entropy-driven),"[1]; ITC, 298 K",entropy-driven
same,Kd,"[1]; KD, S1 Table, ITC binding affinity listed beside Tm",20 ± 16 µM
same,Kd,"[1]; KD, S2 Table, NaCl 0 M",19.5 µM
same,Kd,"[1]; KD, S2 Table, NaCl 0.2 M",6.7 µM
same,Kd,"[1]; KD, Table 1, ITC, 298 K, 50 mM sodium phosphate pH 6.8",20 ± 16 µM
same,ΔH/ΔG,"[1]; Table 1, ITC, 298 K",10%
same,ΔG,[1]; [3],-6.3 ± 0.4 kcal/mol
same,ΔH,[1]; [3],-0.6 ± 0.4 kcal/mol
same,−TΔS,[1]; [3],-5.8 ± 0.7 kcal/mol
same,N (number of binding sites),[1]; [4],1.0 ± 0.2
same,Tm,[2],68.8± 0.2 °C
same,ΔTm at 500 µM,[2],0.2 °C
same,binding site compared with warfarin,site I of HSA,identical
"O=C(O[C@@H]1Cc2c(O)cc(O)cc2O[C@@H]1c1cc(O)c(O)c(O)c1)c1cc(O)c(O)c(O)c1 [EGCg, (−)-epigallocatechin gallate]",change of binding affinity with addition of 0.2 M NaCl,[1]; ITC,decreased
same,thermodynamic profile of binding (enthalpy-driven or entropy-driven),"[1]; ITC, 298 K",enthalpy-driven
same,Kd,"[1]; S1 Table, ITC binding affinity listed beside Tm, read-out: KD",2.2 ± 0.3 µM
same,Kd,"[1]; S2 Table, NaCl 0.2 M, read-out: KD",27.3 µM
same,N,"[1]; S3 Table, temperature 288 K",1.1±0.1
same,ΔG,"[1]; S3 Table, temperature 288 K",-7.4 ± 0.1 kcal/mol
same,ΔH,"[1]; S3 Table, temperature 288 K",-3.9 ± 0.5 kcal/mol
same,−TΔS,"[1]; S3 Table, temperature 288 K",-3.5 ± 0.5 kcal/mol
same,Kd,"[1]; S3 Table, temperature 288 K, read-out: KD",2.3 ± 0.1 µM
same,N,"[1]; S3 Table, temperature 293 K",1.1±0.1
same,ΔG,"[1]; S3 Table, temperature 293 K",-7.6 ± 0.7 kcal/mol
same,ΔH,"[1]; S3 Table, temperature 293 K",-4.7 ± 0.7 kcal/mol
same,−TΔS,"[1]; S3 Table, temperature 293 K",-2.9 ± 0.8 kcal/mol
same,Kd,"[1]; S3 Table, temperature 293 K, read-out: KD",2.1 ± 0.7 µM
same,N,"[1]; S3 Table, temperature 298 K",1.1±0.1
same,ΔG,"[1]; S3 Table, temperature 298 K",-7.8 ± 0.4 kcal/mol
same,ΔH,"[1]; S3 Table, temperature 298 K",-5.7 ± 0.7 kcal/mol
same,−TΔS,"[1]; S3 Table, temperature 298 K",-2.1 ± 0.6 kcal/mol
same,Kd,"[1]; S3 Table, temperature 298 K, read-out: KD",2 ± 0.4 µM
same,N,"[1]; S3 Table, temperature 303 K",1.1±0.1
same,ΔG,"[1]; S3 Table, temperature 303 K",-7.9 ± 0.8 kcal/mol
same,ΔH,"[1]; S3 Table, temperature 303 K",-6.1 ± 0.2 kcal/mol
same,−TΔS,"[1]; S3 Table, temperature 303 K",-1.8 ± 0.3 kcal/mol
same,Kd,"[1]; S3 Table, temperature 303 K, read-out: KD",2.1 ± 0.8 µM
same,ΔH/ΔG,"[1]; Table 1, ITC, 298 K",61%
same,ΔG,[1]; [3],-7.7 ± 0.1 kcal/mol
same,ΔH,[1]; [3],-4.7 ± 0.6 kcal/mol
same,−TΔS,[1]; [3],-3.0 ± 0.6 kcal/mol
same,N (number of binding sites),[1]; [4],1.1 ± 0.1
same,Kd,"[1]; Table 1, ITC, 298 K, 50 mM sodium phosphate pH 6.8, read-out: KD",2.2 ± 0.3 µM
same,ΔG,[1]; [5],-7.7 ± 0.1 kcal/mol
same,−TΔS,[1]; [5],-3.0 ± 0.6 kcal/mol
same,N (number of binding sites),"[1]; Table 2, methylated catechin derivatives, ITC, 298 K, 50 mM sodium phosphate pH 6.8",1.1 ± 0.1
same,Kd,"[1]; Table 2, methylated catechin derivatives, ITC, 298 K, 50 mM sodium phosphate pH 6.8, read-out: KD",2.2 ± 0.3 µM
same,ΔCp (change in heat capacity),"[1]; slope of ΔH versus temperature, 288 to 303 K",−148 cal mol^−1 K^−1
same,Tm,[2],71.4 ± 0.3 °C
same,ΔTm at 500 µM,[2]; human serum albumin (HSA) 50 µM in buffer,2.7 °C
same,binding site compared with warfarin,site I of HSA,identical

# From publication PMC6181319, “Thermodynamic and computational analyses reveal the functional roles of the galloyl group of tea catechins in molecular recognition” (PLoS ONE, 2018)
